The values below come from patent publication US20090203738A1, “Pharmaceutical Composition for Treating Bulimia and Depression Arising from Bulimia” (priority 2005, published 2009).

SMILES strings stand for the structures. Counter-ions that a name gives are not always drawn. Like-named read-outs stand apart in the source and are kept apart here.

In data set [1] the test system is patient with excessive eating and vomiting (bulimia) and depressive state. The following applies: patient history: drug therapy and spiritual therapy at three neurological hospitals before the first examination; cited from earlier work.
A further data set relates to bulimia. The note with it: cited from earlier work.
In data set [2] the test system is patient with excessive eating and vomiting (bulimia), insensitive to 60 mg of fluoxetine. The source says:
An excessive eating started when they were the third year class ([…]) of high school and it is still continuing. At the first medical examination, they were unable to go to university.

In data set [3] the test system is patients suffering from light to medium Alzheimer's disease. The following applies: 24-week, double-blind, placebo-controlled trial; cited from earlier work.

As for `CCCC(CCC)C(=O)[O-].[Na+]` [sodium valproate], the “improvement under earlier drug therapy” value in data set [1] was “no improvement was noted”. `O=C1CN=C(c2ccccc2Cl)c2cc([N+](=O)[O-])ccc2N1` [Rivotril]: in data set [1], the “improvement under earlier drug therapy” value is reported as “no improvement was noted”.

For `OC1(c2ccc(Cl)cc2)c2ccccc2C2=NCCN21` (stereo not shown) [mazindol], in the data set on bulimia (applied for bulimia), the side effects entry was “excitation, frustration, load on cardiovascular system, dysuria and others”. In the case of `CNCCC(Oc1ccc(C(F)(F)F)cc1)c1ccccc1` (stereo not shown) [fluoxetine], the rate of improvement entry in the data set with bulimia (bulimia, 60 mg per day) is reported as “about 60%”. The “improvement in excessive eating” value in data set [2] (20 mg of fluoxetine for two weeks) is given as “no improvement in excessive eating was noted”; in data set [2] (fluoxetine increased to 40 mg), “no improvement was noted yet”. The “amount and frequency of excessive eating” value in data set [2] (fluoxetine increased up to 60 mg, for two weeks) is “no decrease in amount and frequency of excessive eating were noted”. Besides, in data set [2] (fluoxetine up to 60 mg, six weeks from the initiation of the therapy), the depression result is recorded as “No change in depression was noted”. In the case of `Fc1ccc([C@@H]2CCNC[C@H]2COc2ccc3c(c2)OCO3)cc1` [Paxil], the “improvement under earlier drug therapy” value in data set [1] was “no improvement was noted”. For `CN1C(=O)CN=C(c2ccccc2)c2cc(Cl)ccc21` [diazepam], the “improvement under earlier drug therapy” value in data set [1] is recorded as “no improvement was noted”. Consider `COCCCC/C(=N\OCCN)c1ccc(C(F)(F)F)cc1` [fluvoxamine], for which the “improvement under earlier drug therapy” value in data set [1] is recorded as “no improvement was noted”. As for `Cc1nc2n(c(=O)c1CCN1CCC(c3noc4cc(F)ccc34)CC1)CCCC2` [Risperdal], the “improvement under earlier drug therapy” value in data set [1] was “no improvement was noted”.

With `COc1cc2c(cc1OC)C(=O)C(CC1CCN(Cc3ccccc3)CC1)C2` (stereo not shown) [donepezil hydrochloride, 1-benzyl-4-[(5,6-dimethoxy-1-indanon)-2-yl]methylpiperidine], the “cognitive ability and general function” value in data set [3] is “improves the cognitive ability and general function”.
